Assay results from the kinase profiling compilation of Christmann-Franck et al. (2016).

Tests used:
Assay in all cases: KINOMEscan competition binding
Details in all cases: compound 10.0 µM
[1] = target: GSK3B (human) (UniProt P49841)
[2] = target: HIPK1 (human) (UniProt Q86Z02)
[3] = tested on: KIT (human), P10721 [V559D/T670I]
[4] = target: PLK4 (human) (UniProt O00444)
[5] = target: BRAF (human) (UniProt P15056)
[6] = target: CSNK1G2 (human) (UniProt P78368)
[7] = target: MAPK3 (human) (UniProt P27361)
[8] = target: PLK1 (human) (UniProt P53350)
[9] = target: PIM3 (human) (UniProt Q86V86)
[10] = target: PAK2 (human) (UniProt Q13177)
[11] = target: ADCK3 (human) (UniProt Q8NI60)
[12] = target: NLK (human) (UniProt Q9UBE8)
[13] = target: MAP3K13 (human) (UniProt O43283)
[14] = target: MAP3K4 (human) (UniProt Q9Y6R4)
[15] = target: CDK9 (human) (UniProt P50750)
[16] = target: LRRK2 (human) (UniProt Q5S007)
[17] = target: TYK2 JH1 catalytic (human) (UniProt P29597)
[18] = target: PRKACA (human) (UniProt P17612)
[19] = target: PAK1 (human) (UniProt Q13153)
[20] = target: FGFR2 (human) (UniProt P21802)
[21] = target: CAMK2A (human) (UniProt Q9UQM7)
[22] = target: CHEK1 (human) (UniProt O14757)
[23] = target: NTRK1 (human) (UniProt P04629)
[24] = target: SIK1 (human) (UniProt P57059)
[25] = target: ACVR2B (human) (UniProt Q13705)
[26] = target: NEK1 (human) (UniProt Q96PY6)
[27] = target: AKT2 (human) (UniProt P31751)
[28] = target: MKNK2 (human) (UniProt Q9HBH9)
[29] = target: MAPKAPK2 (human) (UniProt P49137)
[30] = target: PLK3 (human) (UniProt Q9H4B4)
[31] = target: RPS6KA3 KD1 (human) (UniProt P51812)
[32] = target: MAP3K9 (human) (UniProt P80192)
[33] = target: SGK1 (human) (UniProt O00141)
[34] = target: CDK2 (human) (UniProt P24941)
[35] = target: MAP3K14 (human) (UniProt Q99558)
[36] = target: STK32C (human) (UniProt Q86UX6)
[37] = target: CLK3 (human) (UniProt P49761)
[38] = target: RAF1 (human) (UniProt P04049)
[39] = target: PIK3CG (human) (UniProt P48736)
[40] = target: BMPR2 (human) (UniProt Q13873)
[41] = target: FGFR3 (human) (UniProt P22607)

Sequence of MAPKAPK2 (human) (P49137 whole entry, looked up): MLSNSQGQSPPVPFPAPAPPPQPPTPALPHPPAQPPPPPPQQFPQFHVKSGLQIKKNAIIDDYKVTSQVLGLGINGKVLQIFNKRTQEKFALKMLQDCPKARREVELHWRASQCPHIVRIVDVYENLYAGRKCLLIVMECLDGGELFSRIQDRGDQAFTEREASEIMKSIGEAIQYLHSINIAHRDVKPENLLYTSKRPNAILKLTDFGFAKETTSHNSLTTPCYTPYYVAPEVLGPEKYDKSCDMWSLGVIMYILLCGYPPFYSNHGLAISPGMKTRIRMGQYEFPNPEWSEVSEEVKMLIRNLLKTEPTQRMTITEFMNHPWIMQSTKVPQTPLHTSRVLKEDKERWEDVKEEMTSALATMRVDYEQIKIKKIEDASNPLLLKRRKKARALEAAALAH
Sequence of CDK9 (human) (P50750 whole entry, looked up): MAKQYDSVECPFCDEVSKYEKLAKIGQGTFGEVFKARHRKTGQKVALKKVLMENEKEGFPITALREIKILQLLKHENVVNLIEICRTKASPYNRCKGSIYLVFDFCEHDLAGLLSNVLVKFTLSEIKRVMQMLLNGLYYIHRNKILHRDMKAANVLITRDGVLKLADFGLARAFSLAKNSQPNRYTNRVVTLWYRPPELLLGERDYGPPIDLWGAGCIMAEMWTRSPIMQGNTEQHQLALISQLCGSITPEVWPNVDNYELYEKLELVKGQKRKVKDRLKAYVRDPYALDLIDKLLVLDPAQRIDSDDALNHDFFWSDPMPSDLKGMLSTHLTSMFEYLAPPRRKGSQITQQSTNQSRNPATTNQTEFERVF
Sequence of PLK4 (human) (O00444 whole entry, looked up): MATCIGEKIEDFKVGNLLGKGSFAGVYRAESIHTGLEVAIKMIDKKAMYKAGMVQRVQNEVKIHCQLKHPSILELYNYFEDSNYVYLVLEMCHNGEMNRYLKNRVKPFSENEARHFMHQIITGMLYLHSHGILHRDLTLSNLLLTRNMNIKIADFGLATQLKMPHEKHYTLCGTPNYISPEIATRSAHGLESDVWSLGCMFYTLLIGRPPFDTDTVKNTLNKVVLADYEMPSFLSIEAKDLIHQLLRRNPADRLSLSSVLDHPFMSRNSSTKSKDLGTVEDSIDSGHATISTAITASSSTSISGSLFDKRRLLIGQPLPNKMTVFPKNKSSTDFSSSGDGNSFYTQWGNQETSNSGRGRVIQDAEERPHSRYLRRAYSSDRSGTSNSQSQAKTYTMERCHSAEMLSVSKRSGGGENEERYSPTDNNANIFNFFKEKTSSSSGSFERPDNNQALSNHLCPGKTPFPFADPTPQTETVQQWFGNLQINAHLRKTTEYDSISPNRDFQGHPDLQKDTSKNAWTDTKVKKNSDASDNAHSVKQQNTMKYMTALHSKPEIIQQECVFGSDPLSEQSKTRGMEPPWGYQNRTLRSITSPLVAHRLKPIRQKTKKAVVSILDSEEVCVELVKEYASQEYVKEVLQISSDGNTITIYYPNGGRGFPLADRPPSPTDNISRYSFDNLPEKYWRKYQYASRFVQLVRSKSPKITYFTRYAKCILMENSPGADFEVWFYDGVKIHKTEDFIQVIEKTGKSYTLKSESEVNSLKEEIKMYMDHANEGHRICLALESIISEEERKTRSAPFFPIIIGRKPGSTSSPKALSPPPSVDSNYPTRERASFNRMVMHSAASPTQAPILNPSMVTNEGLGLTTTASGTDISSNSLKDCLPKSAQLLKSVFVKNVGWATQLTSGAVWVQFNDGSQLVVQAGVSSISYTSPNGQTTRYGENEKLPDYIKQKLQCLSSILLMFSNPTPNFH
Sequence of NLK (human) (Q9UBE8 whole entry, looked up): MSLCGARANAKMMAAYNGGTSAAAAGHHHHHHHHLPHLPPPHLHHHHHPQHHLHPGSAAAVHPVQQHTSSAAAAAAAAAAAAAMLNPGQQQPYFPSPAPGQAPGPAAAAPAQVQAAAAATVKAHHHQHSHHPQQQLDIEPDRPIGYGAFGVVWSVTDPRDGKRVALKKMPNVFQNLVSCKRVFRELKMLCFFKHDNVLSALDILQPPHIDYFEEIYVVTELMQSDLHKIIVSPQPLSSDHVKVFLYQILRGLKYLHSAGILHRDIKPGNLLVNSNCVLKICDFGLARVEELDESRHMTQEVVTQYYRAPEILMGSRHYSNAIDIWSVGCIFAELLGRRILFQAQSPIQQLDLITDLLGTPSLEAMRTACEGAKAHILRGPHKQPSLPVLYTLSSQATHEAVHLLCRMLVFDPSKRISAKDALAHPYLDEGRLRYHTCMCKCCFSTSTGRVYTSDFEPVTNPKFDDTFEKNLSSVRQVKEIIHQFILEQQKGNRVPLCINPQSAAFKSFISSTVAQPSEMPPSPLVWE
Sequence of PAK1 (human) (Q13153 whole entry, looked up): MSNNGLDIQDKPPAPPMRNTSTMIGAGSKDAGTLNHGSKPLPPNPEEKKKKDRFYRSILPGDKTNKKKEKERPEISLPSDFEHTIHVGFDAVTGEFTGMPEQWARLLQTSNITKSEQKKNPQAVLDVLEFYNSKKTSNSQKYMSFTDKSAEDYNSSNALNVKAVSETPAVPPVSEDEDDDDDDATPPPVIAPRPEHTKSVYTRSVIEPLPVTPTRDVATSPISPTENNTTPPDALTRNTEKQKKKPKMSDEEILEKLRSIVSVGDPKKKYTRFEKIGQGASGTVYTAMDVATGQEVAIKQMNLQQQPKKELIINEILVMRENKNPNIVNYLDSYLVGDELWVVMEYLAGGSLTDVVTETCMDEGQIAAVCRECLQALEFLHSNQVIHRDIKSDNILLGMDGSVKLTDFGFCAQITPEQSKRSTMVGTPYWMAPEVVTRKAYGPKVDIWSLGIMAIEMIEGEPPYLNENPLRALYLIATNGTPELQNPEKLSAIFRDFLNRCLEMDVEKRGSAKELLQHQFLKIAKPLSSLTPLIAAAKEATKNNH
Sequence of FGFR2 (human) (P21802 whole entry, looked up): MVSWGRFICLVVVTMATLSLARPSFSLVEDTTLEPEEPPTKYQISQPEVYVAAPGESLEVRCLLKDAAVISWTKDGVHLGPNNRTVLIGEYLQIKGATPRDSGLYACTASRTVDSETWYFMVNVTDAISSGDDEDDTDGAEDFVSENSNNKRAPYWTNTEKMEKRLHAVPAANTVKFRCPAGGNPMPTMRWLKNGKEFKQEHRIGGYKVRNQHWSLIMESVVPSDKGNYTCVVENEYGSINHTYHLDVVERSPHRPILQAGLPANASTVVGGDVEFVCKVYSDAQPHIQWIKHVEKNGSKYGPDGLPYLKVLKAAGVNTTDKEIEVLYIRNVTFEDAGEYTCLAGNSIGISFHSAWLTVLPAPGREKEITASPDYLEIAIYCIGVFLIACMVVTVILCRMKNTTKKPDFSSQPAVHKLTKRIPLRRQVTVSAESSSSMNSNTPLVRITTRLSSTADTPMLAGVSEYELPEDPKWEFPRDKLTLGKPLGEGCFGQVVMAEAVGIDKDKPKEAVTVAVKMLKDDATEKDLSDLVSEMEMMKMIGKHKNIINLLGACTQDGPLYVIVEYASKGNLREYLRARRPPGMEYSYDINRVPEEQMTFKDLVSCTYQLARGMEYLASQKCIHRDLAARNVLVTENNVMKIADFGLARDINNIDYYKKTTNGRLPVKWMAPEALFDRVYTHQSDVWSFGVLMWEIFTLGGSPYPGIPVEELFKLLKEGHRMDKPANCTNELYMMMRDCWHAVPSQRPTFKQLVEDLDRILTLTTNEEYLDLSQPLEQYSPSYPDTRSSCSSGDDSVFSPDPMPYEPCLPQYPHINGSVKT
Sequence of CAMK2A (human) (Q9UQM7 whole entry, looked up): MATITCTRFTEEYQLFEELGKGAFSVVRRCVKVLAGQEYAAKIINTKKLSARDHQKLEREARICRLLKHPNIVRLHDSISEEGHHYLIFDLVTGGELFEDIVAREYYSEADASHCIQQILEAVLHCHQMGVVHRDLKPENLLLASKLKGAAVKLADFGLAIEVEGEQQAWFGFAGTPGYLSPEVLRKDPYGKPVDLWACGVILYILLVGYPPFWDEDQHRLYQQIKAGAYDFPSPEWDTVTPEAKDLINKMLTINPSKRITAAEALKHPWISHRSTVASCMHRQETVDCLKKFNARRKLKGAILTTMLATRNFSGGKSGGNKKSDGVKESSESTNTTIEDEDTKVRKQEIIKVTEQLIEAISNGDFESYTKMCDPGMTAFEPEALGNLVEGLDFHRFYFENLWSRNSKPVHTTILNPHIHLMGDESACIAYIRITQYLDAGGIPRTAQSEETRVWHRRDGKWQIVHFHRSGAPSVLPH
Sequence of NTRK1 (human) (P04629 whole entry, looked up): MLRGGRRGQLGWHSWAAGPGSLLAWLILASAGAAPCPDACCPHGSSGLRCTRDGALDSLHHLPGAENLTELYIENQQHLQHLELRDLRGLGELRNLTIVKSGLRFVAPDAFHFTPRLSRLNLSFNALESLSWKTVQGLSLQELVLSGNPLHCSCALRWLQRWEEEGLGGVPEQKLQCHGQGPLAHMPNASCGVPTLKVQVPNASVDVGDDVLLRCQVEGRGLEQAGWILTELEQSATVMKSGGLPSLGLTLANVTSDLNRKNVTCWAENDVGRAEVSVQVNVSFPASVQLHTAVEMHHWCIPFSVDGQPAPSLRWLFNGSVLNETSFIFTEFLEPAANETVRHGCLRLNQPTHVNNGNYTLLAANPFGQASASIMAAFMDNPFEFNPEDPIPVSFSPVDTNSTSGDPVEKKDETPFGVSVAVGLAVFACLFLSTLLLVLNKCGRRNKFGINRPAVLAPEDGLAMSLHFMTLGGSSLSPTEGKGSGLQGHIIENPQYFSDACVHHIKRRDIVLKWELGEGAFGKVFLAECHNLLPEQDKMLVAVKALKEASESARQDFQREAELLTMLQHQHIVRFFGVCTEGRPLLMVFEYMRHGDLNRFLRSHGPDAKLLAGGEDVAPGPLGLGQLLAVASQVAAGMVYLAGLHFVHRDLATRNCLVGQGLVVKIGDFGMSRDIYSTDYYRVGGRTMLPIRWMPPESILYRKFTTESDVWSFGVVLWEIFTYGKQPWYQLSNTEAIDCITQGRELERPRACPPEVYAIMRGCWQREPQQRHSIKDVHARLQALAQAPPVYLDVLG

For `O=C(Nc1ccc(Oc2ncnc3[nH]ncc23)cc1)Nc1ccc(Cl)c(C(F)(F)F)c1`, which kinase still bound, per cent of control [1] is on record?
Its kinase still bound, per cent of control is 99%.

What about the kinase still bound, per cent of control [2] of the same compound?
Its kinase still bound, per cent of control is 52%.

What about the kinase still bound, per cent of control [3] of the same compound?
Its kinase still bound, per cent of control is 0.15%.

And the kinase still bound, per cent of control [4]?
The kinase still bound, per cent of control was 52%.

What about the kinase still bound, per cent of control [5] of the same compound?
Its kinase still bound, per cent of control is 3.8%.

And the kinase still bound, per cent of control [6]?
Its kinase still bound, per cent of control is 94%.

And the kinase still bound, per cent of control [7]?
Its kinase still bound, per cent of control is 100%.

And the kinase still bound, per cent of control [8]?
Its kinase still bound, per cent of control is 100%.

And the kinase still bound, per cent of control [9]?
Its kinase still bound, per cent of control is 94%.

What about the kinase still bound, per cent of control [10] of the same compound?
Its kinase still bound, per cent of control is 97%.

What about the kinase still bound, per cent of control [11] of the same compound?
Its kinase still bound, per cent of control is 100%.

What about the kinase still bound, per cent of control [12] of the same compound?
Its kinase still bound, per cent of control is 44%.

What about the kinase still bound, per cent of control [13] of the same compound?
Its kinase still bound, per cent of control is 92%.

And the kinase still bound, per cent of control [14]?
The kinase still bound, per cent of control was 87%.

And the kinase still bound, per cent of control [15]?
The kinase still bound, per cent of control was 56%.

And the kinase still bound, per cent of control [16]?
The kinase still bound, per cent of control was 83%.

And the kinase still bound, per cent of control [17]?
The kinase still bound, per cent of control was 88%.

What about the kinase still bound, per cent of control [18] of the same compound?
The kinase still bound, per cent of control was 69%.

What about the kinase still bound, per cent of control [19] of the same compound?
Its kinase still bound, per cent of control is 86%.

What about the kinase still bound, per cent of control [20] of the same compound?
The kinase still bound, per cent of control was 51%.

And the kinase still bound, per cent of control [21]?
Its kinase still bound, per cent of control is 90%.

And the kinase still bound, per cent of control [22]?
The kinase still bound, per cent of control was 100%.

What about the kinase still bound, per cent of control [23] of the same compound?
The kinase still bound, per cent of control was 41%.

And the kinase still bound, per cent of control [24]?
Its kinase still bound, per cent of control is 100%.

What about the kinase still bound, per cent of control [25] of the same compound?
Its kinase still bound, per cent of control is 100%.

And the kinase still bound, per cent of control [26]?
Its kinase still bound, per cent of control is 85%.

What about the kinase still bound, per cent of control [27] of the same compound?
Its kinase still bound, per cent of control is 96%.

What about the kinase still bound, per cent of control [28] of the same compound?
Its kinase still bound, per cent of control is 0.05%.

And the kinase still bound, per cent of control [29]?
Its kinase still bound, per cent of control is 100%.

What about the kinase still bound, per cent of control [30] of the same compound?
Its kinase still bound, per cent of control is 16%.

And the kinase still bound, per cent of control [31]?
Its kinase still bound, per cent of control is 100%.

And the kinase still bound, per cent of control [32]?
The kinase still bound, per cent of control was 100%.

And the kinase still bound, per cent of control [33]?
Its kinase still bound, per cent of control is 88%.

What about the kinase still bound, per cent of control [34] of the same compound?
The kinase still bound, per cent of control was 64%.

And the kinase still bound, per cent of control [35]?
The kinase still bound, per cent of control was 97%.

And the kinase still bound, per cent of control [36]?
The kinase still bound, per cent of control was 96%.

What about the kinase still bound, per cent of control [37] of the same compound?
Its kinase still bound, per cent of control is 65%.

And the kinase still bound, per cent of control [38]?
The kinase still bound, per cent of control was 1%.

What about the kinase still bound, per cent of control [39] of the same compound?
The kinase still bound, per cent of control was 98%.

What about the kinase still bound, per cent of control [40] of the same compound?
The kinase still bound, per cent of control was 81%.

And the kinase still bound, per cent of control [41]?
Its kinase still bound, per cent of control is 80%.
